This note sets out measurements from patent publication US11713318B2, “Short conjugated oligoelectrolytes and uses thereof” (The Regents Of The University Of California, priority 2018, dated 2023).

Molecules are shown by their SMILES.

Format in all cases: cell-based
The subject of one data set is P. aeruginosa. As to the kind of experiment: MIC panel of pathogens, Table 4. The settings on record: Pseudomonas aeruginosa.
For the next data set, the system named is S. flexneri. As to the kind of experiment: MIC panel of pathogens, Table 4. The settings on record: Shigella flexneri. On the procedure:
(§1) The minimum inhibitory concentration (MIC) was determined according to the Clinical and Laboratory Standards Institute (CLSI) guidelines by broth dilution. […] MIC values were derived after 20 h incubation, and were the result of at least 6 independent determinations.

The next data set relates to E. coli. As to the kind of experiment: MIC panel of pathogens, Table 4. The settings on record: Escherichia coli. How it is done:
as §1

For the next data set, the system named is S. Typhimurium. Briefly: MIC panel of pathogens, Table 4. The settings on record: Salmonella enterica.
A short description of data set [1]: Cytotoxicity tested by Eurofins Pharma Discovery Services. Conditions: Primary Human Hepatocytes, Eurofins; at the concentration given as IC50 bound; read-out: cell viability at the highest or lowest test concentration.

By MIC is commonly meant the lowest concentration found to suppress growth. A higher MIC goes with weaker potency.

Consider `CCCCCC[N+](C)(C)CCCCCCOc1cc(/C=C/c2cc(OCCCCCC[N+](C)(C)CCCCCC)cc(OCCCCCC[N+](C)(C)CCCCCC)c2)cc(OCCCCCC[N+](C)(C)CCCCCC)c1` [Formula E], for which the MIC against P. aeruginosa was found to be 8 µg/mL; with S. flexneri it was 2 µg/mL; in the data set with E. coli, 2 µg/mL; in the data set on S. Typhimurium, 2 µg/mL.

For `C[N+](C)(C)CCCCOc1cc(/C=C/c2ccc(/C=C/c3cc(OCCCC[N+](C)(C)C)cc(OCCCC[N+](C)(C)C)c3)cc2)cc(OCCCC[N+](C)(C)C)c1.[I-].[I-].[I-].[I-]` [Formula F], the viability in data set [1] was 79%.
